{"source": "ChEMBL document CHEMBL1136667", "about": "“Inhibitors of Abeta production: solid-phase synthesis and SAR of alpha-hydroxycarbonyl derivatives” (Bioorg Med Chem Lett, 2003)", "biological_target": "Gamma-secretase", "test": "Inhibition of amyloid beta protein production in transfected H4 (neuroglioma) cells expressing […] constructs.", "assay_type": "functional, cell-based, Homo sapiens", "data": [{"smiles": "CCOC(=O)[C@H](O)[C@H](CC1CCCCC1)NC(=O)[C@H](CC(C)C)NC(=O)Cc1ccccc1", "values": [{"measurement": "IC50", "result": 1600, "unit": "nM"}]}, {"smiles": "CCOC(=O)[C@H](O)[C@H](CC1CCCCC1)NC(=O)[C@H](CC(C)C)NC(=O)Cc1cccc(F)c1", "values": [{"measurement": "IC50", "result": 920, "unit": "nM"}]}, {"smiles": "CC(=O)[C@H](O)[C@H](CC1CCCCC1)NC(=O)[C@H](CC(C)C)NC(=O)Cc1cc(F)cc(F)c1", "values": [{"measurement": "IC50", "result": 180, "unit": "nM"}]}, {"smiles": "CC(C)C[C@H](NC(=O)Cc1ccccc1)C(=O)N[C@@H](CC1CCCCC1)[C@@H](O)C(=O)c1ccccc1", "values": [{"measurement": "IC50", "result": 900, "unit": "nM"}]}, {"smiles": "CC(=O)[C@H](O)[C@H](CC1CCCCC1)NC(=O)[C@H](CC(C)C)NC(=O)Cc1ccccc1", "values": [{"measurement": "IC50", "result": 900, "unit": "nM"}]}, {"smiles": "CCOC(=O)[C@H](O)[C@H](CC1CCCCC1)NC(=O)[C@H](NC(=O)Cc1ccccc1)C(C)C", "values": [{"measurement": "IC50", "result": "> 25000", "unit": "nM"}]}, {"smiles": "CCOC(=O)[C@H](O)[C@H](CC1CCCCC1)NC(=O)[C@@H](NC(=O)C1(c2ccccc2)CC1)C(C)C", "values": [{"measurement": "IC50", "result": "> 25000", "unit": "nM"}]}, {"smiles": "CCOC(=O)[C@H](O)[C@H](CC1CCCCC1)NC(=O)[C@@H](NC(=O)/C=C/c1ccccc1)C(C)C", "values": [{"measurement": "IC50", "result": 5000, "unit": "nM"}]}, {"smiles": "CCOC(=O)[C@H](O)[C@H](CC1CCCCC1)NC(=O)[C@H](CC(C)C)NC(=O)Cc1cc(F)cc(F)c1", "values": [{"measurement": "IC50", "result": 450, "unit": "nM"}]}, {"smiles": "CCOC(=O)[C@H](O)[C@H](CC1CCCCC1)NC(=O)[C@H](CC(C)C)NC(=O)Cc1ccc(F)cc1", "values": [{"measurement": "IC50", "result": 1800, "unit": "nM"}]}, {"smiles": "CC(C)C[C@H](NC(=O)Cc1ccccc1)C(=O)N[C@@H](CC1CCCCC1)[C@@H](O)C(=O)O", "values": [{"measurement": "IC50", "result": 15000, "unit": "nM"}]}, {"smiles": "CC(C)C[C@H](NC(=O)Cc1ccccc1)C(=O)N[C@@H](CC1CCCCC1)[C@@H](O)C(=O)Cc1ccccc1", "values": [{"measurement": "IC50", "result": 400, "unit": "nM"}]}, {"smiles": "CCOC(=O)[C@H](O)[C@H](CC1CCCCC1)NC(=O)[C@@H](NC(=O)c1ccccc1)C(C)C", "values": [{"measurement": "IC50", "result": "> 25000", "unit": "nM"}]}, {"smiles": "CC(C)C[C@H](NC(=O)Cc1cc(F)cc(F)c1)C(=O)N[C@@H](CC1CCCCC1)[C@@H](O)C(=O)Cc1ccccc1", "values": [{"measurement": "IC50", "result": 160, "unit": "nM"}]}, {"smiles": "CCOC(=O)[C@H](O)[C@H](CC1CCCCC1)NC(=O)[C@@H](NC(=O)Cc1ccccc1)C(C)C", "values": [{"measurement": "IC50", "result": 3400, "unit": "nM"}]}, {"smiles": "CC(C)CCC(=O)N[C@@H](CC(C)C)C(=O)N[C@@H](CC1CCCCC1)[C@@H](O)C(=O)Cc1ccccc1", "values": [{"measurement": "IC50", "result": 300, "unit": "nM"}]}, {"smiles": "CCOC(=O)[C@H](O)[C@H](CC1CCCCC1)NC(=O)[C@@H](NC(=O)Cc1ccccc1F)C(C)C", "values": [{"measurement": "IC50", "result": 17000, "unit": "nM"}]}, {"smiles": "CCCC(=O)[C@H](O)[C@H](CC1CCCCC1)NC(=O)[C@H](CC(C)C)NC(=O)Cc1ccccc1", "values": [{"measurement": "IC50", "result": 600, "unit": "nM"}]}, {"smiles": "CCOC(=O)[C@H](O)[C@H](CC1CCCCC1)NC(=O)[C@H](CC(C)C)NC(=O)CCC(C)C", "values": [{"measurement": "IC50", "result": 1500, "unit": "nM"}]}, {"smiles": "CC(C)C[C@H](NC(=O)Cc1cccc(F)c1)C(=O)N[C@@H](CC1CCCCC1)[C@@H](O)C(=O)Cc1ccccc1", "values": [{"measurement": "IC50", "result": 400, "unit": "nM"}]}, {"smiles": "CCOC(=O)[C@H](O)[C@H](CC1CCCCC1)NC(=O)[C@@H](NC(=O)C(=O)c1ccccc1)C(C)C", "values": [{"measurement": "IC50", "result": 3300, "unit": "nM"}]}, {"smiles": "CC(C)CCC(=O)N[C@@H](CC(C)C)C(=O)N[C@@H](CC1CCCCC1)[C@@H](O)C(=O)C(C)C", "values": [{"measurement": "IC50", "result": 550, "unit": "nM"}]}, {"smiles": "CCOC(=O)[C@H](O)[C@H](CC1CCCCC1)NC(=O)[C@H](Cc1ccccc1)NC(=O)Cc1ccccc1", "values": [{"measurement": "IC50", "result": 15000, "unit": "nM"}]}, {"smiles": "CC(C)CCC(=O)N[C@@H](CC(C)C)C(=O)N[C@@H](CC1CCCCC1)[C@@H](O)C(=O)c1ccccc1", "values": [{"measurement": "IC50", "result": 4500, "unit": "nM"}]}, {"smiles": "CCCC(=O)[C@H](O)[C@H](CC1CCCCC1)NC(=O)[C@H](CC(C)C)NC(=O)CCC(C)C", "values": [{"measurement": "IC50", "result": 580, "unit": "nM"}]}, {"smiles": "CC(=O)[C@H](O)[C@H](CC1CCCCC1)NC(=O)[C@H](CC(C)C)NC(=O)CCC(C)C", "values": [{"measurement": "IC50", "result": 620, "unit": "nM"}]}]}
